US10407422B2, “Triazolopyridine inhibitors of myeloperoxidase” (priority 2015, dated 2019)

Assays:
myeloperoxidase (MPO) [1] = biological target: T1, myeloperoxidase (MPO) (Homo sapiens (Human), UniProt P05164); assay: MPO chlorination assay (APF assay); assay type: biochemical; conditions: potency range class
How it was run: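 Chlorinating activity followed by APF cleavage to fluorescein (485/535 nm, 3 min kinetic read) after adding APF and 10 μM H2O2. Beforehand, 200 pM enzyme, compound and 120 mM NaCl sat 10 min at room temperature in 100 mM KPi, pH 7.4. Initial-rate slopes gave % inhibition; IC50 by Hill-slope fit.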

myeloperoxidase (MPO) [2] = biological target: T1, myeloperoxidase (MPO); assay: MPO peroxidation assay (Amplex Red assay); assay type: biochemical; conditions: potency range class
How it was run: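 IC50 values come from a four-parameter fit of rates taken from the linear 180-540 s portion of a 15 min kinetic read of resorufin (Ex 535/Em 590 nm). Amplex Red (200 μM) plus 10 mM H2O2 was added after a 10 min room-temperature preincubation of inhibitor with 200 pM MPO and 40 nM H2O2 in 100 mM KPi, pH 7.4.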

T1 sequence (P05164 49-745): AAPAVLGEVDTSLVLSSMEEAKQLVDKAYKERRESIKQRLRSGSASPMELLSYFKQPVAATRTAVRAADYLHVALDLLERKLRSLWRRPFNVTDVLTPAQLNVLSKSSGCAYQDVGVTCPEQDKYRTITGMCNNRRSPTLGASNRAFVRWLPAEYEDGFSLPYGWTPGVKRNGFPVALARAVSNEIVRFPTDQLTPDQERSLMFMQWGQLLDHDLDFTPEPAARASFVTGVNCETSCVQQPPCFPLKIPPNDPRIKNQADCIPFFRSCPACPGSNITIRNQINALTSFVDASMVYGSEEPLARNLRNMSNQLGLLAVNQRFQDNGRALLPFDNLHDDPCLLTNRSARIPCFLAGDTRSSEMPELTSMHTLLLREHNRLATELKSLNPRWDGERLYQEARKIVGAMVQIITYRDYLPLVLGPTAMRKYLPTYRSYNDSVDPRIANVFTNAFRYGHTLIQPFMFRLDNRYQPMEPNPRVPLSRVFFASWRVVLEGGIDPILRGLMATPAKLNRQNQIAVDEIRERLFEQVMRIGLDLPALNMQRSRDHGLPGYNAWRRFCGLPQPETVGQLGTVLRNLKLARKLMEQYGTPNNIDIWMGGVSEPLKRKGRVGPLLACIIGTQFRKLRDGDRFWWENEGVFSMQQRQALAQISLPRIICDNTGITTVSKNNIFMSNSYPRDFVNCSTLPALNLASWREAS

| IC50 (myeloperoxidase (MPO) [1]) [nM] | IC50 (myeloperoxidase (MPO) [2]) [nM] | SMILES |
| --- | --- | --- |
| 101 to 999 | 101 to 999 | CN1CCN(CC(=O)NCc2ccc(Cn3cc(Cc4cc(N)nc5[nH]nnc45)cn3)cc2)CC1 [Example 252, N-[(4-{[4-({5-Amino-3H-[1,2,3]triazolo[4,5-b]pyridin-7-yl}methyl)-1H-pyrazol-1-yl]methyl}phenyl)methyl]-2-(4-methylpiperazin-1-yl)acetamide] |
| 101 to 999 | 101 to 999 | Nc1cc(Cc2cnn(Cc3ccc(CNC(=O)CN4CCCC4)cc3)c2)c2nn[nH]c2n1 [Example 253, N-[(4-{[4-({5-Amino-3H-[1,2,3]triazolo[4,5-b]pyridin-7-yl}methyl)-1H-pyrazol-1-yl]methyl}phenyl)methyl]-2-(pyrrolidin-1-yl)acetamide] |
| 101 to 999 | 1 to 100 | Nc1cc(Cc2cnn(Cc3cccc(CN4CCCC4)c3)c2)c2nn[nH]c2n1 [Example 254, 7-[(1-{[3-(Pyrrolidin-1-ylmethyl)phenyl]methyl}-1H-pyrazol-4-yl)methyl]-3H-[1,2,3]triazolo[4,5-b]pyridin-5-amine] |
| 1 to 100 | 1 to 100 | CN(C)Cc1cccc(Cn2cc(Cc3cc(N)nc4[nH]nnc34)cn2)c1 [Example 255, 7-{[1-({3-[(Dimethylamino)methyl]phenyl}methyl)-1H-pyrazol-4-yl]methyl}-3H-[1,2,3]triazolo[4,5-b]pyridin-5-amine] |
| 101 to 999 | 101 to 999 | Nc1cc(Cc2cnn(Cc3cccc(CN4CCOCC4)c3)c2)c2nn[nH]c2n1 [Example 256, 7-[(1-{[3-(Morpholin-4-ylmethyl)phenyl]methyl}-1H-pyrazol-4-yl)methyl]-3H-[1,2,3]triazolo[4,5-b]pyridin-5-amine] |
| 1 to 100 | 1 to 100 | Nc1cc(Cc2cnn(Cc3cccc([C@@H]4CNCCO4)c3)c2)c2nn[nH]c2n1 [Example 257, 7-{[1-({3-[(2R)-Morpholin-2-yl]phenyl}methyl)-1H-pyrazol-4-yl]methyl}-3H-[1,2,3]triazolo[4,5-b]pyridin-5-amine] |
| 101 to 999 | 101 to 999 | NCCN1Cc2ccc(Cn3cc(Cc4cc(N)nc5[nH]nnc45)cn3)cc2C1=O [Example 258, 6-{[4-({5-Amino-3H-[1,2,3]triazolo[4,5-b]pyridin-7-yl}methyl)-1H-pyrazol-1-yl]methyl}-2-(2-aminoethyl)-2,3-dihydro-1H-isoindol-1-one] |
| 101 to 999 | 1 to 100 | Nc1cc(Cc2cnn(Cc3ccc4c(c3)C(=O)NCC4)c2)c2nn[nH]c2n1 [Example 259, 7-{[4-({5-Amino-3H-[1,2,3]triazolo[4,5-b]pyridin-7-yl}methyl)-1H-pyrazol-1-yl]methyl}-1,2,3,4-tetrahydroisoquinolin-1-one] |
| 1 to 100 | 1 to 100 | Nc1cc(Cc2cnn(Cc3ccc4c(c3)C(c3ccccc3)CNC4)c2)c2nn[nH]c2n1 (stereo not drawn) [Example 261, 7-({1-[(4-Phenyl-1,2,3,4-tetrahydroisoquinolin-6-yl)methyl]-1H-pyrazol-4-yl}methyl)-3H-[1,2,3]triazolo[4,5-b]pyridin-5-amine] |
| 101 to 999 | 101 to 999 | Nc1cc(Cc2cnn(Cc3ccc4c(c3)C(C(F)(F)F)NCC4)c2)c2nn[nH]c2n1 (stereo not drawn) [Example 262, 7-[(1-{[1-(Trifluoromethyl)-1,2,3,4-tetrahydroisoquinolin-7-yl]methyl}-1H-pyrazol-4-yl)methyl]-3H-[1,2,3]triazolo[4,5-b]pyridin-5-amine] |
| 101 to 999 | 1 to 100 | Nc1cc(Cc2cnn(Cc3ccccc3OCc3ccccc3)c2)c2nn[nH]c2n1 [Example 263, 7-[(1-{[2-(Benzyloxy)phenyl]methyl}-1H-pyrazol-4-yl)methyl]-3H-[1,2,3]triazolo[4,5-b]pyridin-5-amine] |
| 101 to 999 | 1 to 100 | Nc1cc(Cc2cnn(Cc3ccccc3Oc3ccccc3)c2)c2nn[nH]c2n1 [Example 264, 7-({1-[(2-Phenoxyphenyl)methyl]-1H-pyrazol-4-yl}methyl)-3H-[1,2,3]triazolo[4,5-b]pyridin-5-amine] |
| 1 to 100 | 1 to 100 | Nc1cc(Cc2cnn(Cc3ccccc3Cc3ccccc3)c2)c2nn[nH]c2n1 [Example 265, 7-({1-[(2-Benzylphenyl)methyl]-1H-pyrazol-4-yl}methyl)-3H-[1,2,3]triazolo[4,5-b]pyridin-5-amine] |
| 101 to 999 | 1 to 100 | Nc1cc(Cc2cnn(Cc3cccc4c3Cc3ccccc3-4)c2)c2nn[nH]c2n1 [Example 266, 7-{[1-(9H-Fluoren-1-ylmethyl)-1H-pyrazol-4-yl]methyl}-3H-[1,2,3]triazolo[4,5-b]pyridin-5-amine] |
| 1 to 100 | 1 to 100 | Nc1cc(Cc2cnn(Cc3ccc4c(c3)CCC[C@@H]4N)c2)c2nn[nH]c2n1 [Example 267, 7-[(1-{[(5S)-5-Amino-5,6,7,8-tetrahydronaphthalen-2-yl]methyl}-1H-pyrazol-4-yl)methyl]-3H-[1,2,3]triazolo[4,5-b]pyridin-5-amine] |
| 1 to 100 | 1 to 100 | Nc1cc(Cc2cnn(Cc3ccc4c(c3)CC[C@H]4N)c2)c2nn[nH]c2n1 [Example 268, 7-[(1-{[(1R)-1-Amino-2,3-dihydro-1H-inden-5-yl]methyl}-1H-pyrazol-4-yl)methyl]-3H-[1,2,3]triazolo[4,5-b]pyridin-5-amine] |
| 1 to 100 | 1 to 100 | Nc1cc(Cc2cnn(Cc3ccc4c(c3)CCC[C@H]4N)c2)c2nn[nH]c2n1 [Example 269, 7-[(1-{[(5R)-5-Amino-5,6,7,8-tetrahydronaphthalen-2-yl]methyl}-1H-pyrazol-4-yl)methyl]-3H-[1,2,3]triazolo[4,5-b]pyridin-5-amine] |
| 101 to 999 | 101 to 999 | Nc1cc(Cc2cnn(Cc3ccc4c(c3)CC[C@@H]4N)c2)c2nn[nH]c2n1 [Example 270, 7-[(1-{[(1S)-1-Amino-2,3-dihydro-1H-inden-5-yl]methyl}-1H-pyrazol-4-yl)methyl]-3H-[1,2,3]triazolo[4,5-b]pyridin-5-amine] |
| 101 to 999 | 1 to 100 | N#Cc1ccc(Cn2cc(Cc3cc(N)nc4[nH]nnc34)cn2)cc1 [Example 271, 4-{[4-({5-Amino-3H-[1,2,3]triazolo[4,5-b]pyridin-7-yl}methyl)-1H-pyrazol-1-yl]methyl}benzonitrile] |
| 101 to 999 | 1 to 100 | N#Cc1ccc(Cn2cc(Cc3cc(N)nc4[nH]nnc34)cn2)cc1F [Example 272, 4-{[4-({5-Amino-3H-[1,2,3]triazolo[4,5-b]pyridin-7-yl}methyl)-1H-pyrazol-1-yl]methyl}-2-fluorobenzonitrile] |
| 101 to 999 | 1 to 100 | Nc1cc(Cc2cnn(CCCC3CCNCC3)c2)c2nn[nH]c2n1 [Example 273, 7-({1-[3-(Piperidin-4-yl)propyl]-1H-pyrazol-4-yl}methyl)-3H-[1,2,3]triazolo[4,5-b]pyridin-5-amine] |
| 101 to 999 | 1 to 100 | Nc1cc(Cc2cnn(CC3CC4(CCNCC4)C3)c2)c2nn[nH]c2n1 [Example 274, 7-[(1-{7-Azaspiro[3.5]nonan-2-ylmethyl}-1H-pyrazol-4-yl)methyl]-3H-[1,2,3]triazolo[4,5-b]pyridin-5-amine] |
| 101 to 999 | 1 to 100 | N#Cc1cc(Br)cc(Cn2cc(Cc3cc(N)nc4[nH]nnc34)cn2)c1 [Example 275, 3-{[4-({5-Amino-3H-[1,2,3]triazolo[4,5-b]pyridin-7-yl}methyl)-1H-pyrazol-1-yl]methyl}-5-bromobenzonitrile] |
| 101 to 999 | 101 to 999 | Nc1cc(Cc2cnn(Cc3cc(Cl)cc(-c4ccccc4)c3)c2)c2nn[nH]c2n1 [Example 276, 7-({1-[(3-Chloro-5-phenylphenyl)methyl]-1H-pyrazol-4-yl}methyl)-3H-[1,2,3]triazolo[4,5-b]pyridin-5-amine] |
| 1 to 100 | 1 to 100 | Nc1cc(Cc2cnn(Cc3ccc(F)c(Br)c3)c2)c2nn[nH]c2n1 [Example 277, 7-({1-[(3-Bromo-4-fluorophenyl)methyl]-1H-pyrazol-4-yl}methyl)-3H-[1,2,3]triazolo[4,5-b]pyridin-5-amine] |
| 101 to 999 | 1 to 100 | Nc1cc(Cc2cnn(Cc3cccc(-c4c[nH]cn4)c3)c2)c2nn[nH]c2n1 [Example 278, 7-[(1-{[3-(1H-Imidazol-4-yl)phenyl]methyl}-1H-pyrazol-4-yl)methyl]-3H-[1,2,3]triazolo[4,5-b]pyridin-5-amine] |
| 101 to 999 | 1 to 100 | Cc1[nH]c(-c2ccccc2)nc1-c1cccc(Cn2cc(Cc3cc(N)nc4[nH]nnc34)cn2)c1 [Example 279, 7-[(1-{[3-(5-Methyl-2-phenyl-1H-imidazol-4-yl)phenyl]methyl}-1H-pyrazol-4-yl)methyl]-3H-[1,2,3]triazolo[4,5-b]pyridin-5-amine] |
| 101 to 999 | 1 to 100 | Nc1cc(Cc2cnn(C[C@@H]3C[C@H](Oc4ccc(F)cc4)CN3)c2)c2nn[nH]c2n1 [Example 280, 7-[(1-{[(2S,4S)-4-(4-Fluorophenoxy)pyrrolidin-2-yl]methyl}-1H-pyrazol-4-yl)methyl]-3H-[1,2,3]triazolo[4,5-b]pyridin-5-amine] |
| 1 to 100 | 1 to 100 | Nc1cc(Cc2cnn(CC3CC(Cc4ccc(F)cc4)CN3)c2)c2nn[nH]c2n1 (stereo not drawn) [Example 281, 7-{[1-({4-[(4-Fluorophenyl)methyl]pyrrolidin-2-yl}methyl)-1H-pyrazol-4-yl]methyl}-3H-[1,2,3]triazolo[4,5-b]pyridin-5-amine] |
| 1 to 100 | 1 to 100 | Nc1cc(Cc2cnn(C[C@H]3C[C@H](Oc4ccc(F)cc4)CN3)c2)c2nn[nH]c2n1 [Example 282, 7-[(1-{[(2R,4S)-4-(4-Fluorophenoxy)pyrrolidin-2-yl]methyl}-1H-pyrazol-4-yl)methyl]-3H-[1,2,3]triazolo[4,5-b]pyridin-5-amine] |
